In patent US20230235374A1, “High Throughput Assays for Detecting Translation Readthrough Inducers” (The Trustees of the University of Pennsylvania, priority 2021, published 2023):

Columns and labels:
eRF1 = biological target: T1, eRF1 (Saccharomyces cerevisiae, UniProt P12385); assay: [3H]-AzAt photoaffinity labeling of isolated eRF1; assay type: binding
T1 construct: made in house; host or cells: E. coli BL21(DE3) CodonPlus
Method: (§1) Photoaffinity labeling with [^3H]-AzAt. Samples in Buffer 4, typically 20 μL, were incubated in the dark (20 min for Stop-POST5 and 80S-IRES complexes, 2 min for release factors) with various concentrations of [^3H]-AzAt at 37° C., transferred to a UV-transparent cuvette which was covered with parafilm to prevent evaporation, and irradiated in a Rayonet photochemical reactor equipped with 300 nm UV lamps for 5 min at room temperature. This was followed by quenching with 2 mM DTT at 37° C. for 5 min under ambient light. The irradiation time gave complete photolysis of the phenyl azide moiety in AzAt. Photolysis was also complete at 5 min in the presence of 1 mM ataluren, ruling out internal filtering effects.
(§2) Photoaffinity labeling of release factors. Solutions containing eRF1 (10 μM), eRF3 (20 μM) and 1 mM GMPPMP were pre-incubated at 37° C. for 2 min to form the ternary complex prior to photolabeling with [^3H]-AzAt. After quenching, reaction mixtures were loaded onto a 4-15% mini protean SDS-PAGE gel for protein separation and isolation. Gel slices containing eRF1 or eRF3, as shown by Coomassie Blue R250 staining, were crushed and the radioactivity was extracted in extraction buffer (50 mM Tris-HCl, 150 mM NaCl, and 0.1 mM EDTA; pH 7.5) by vigorously shaking at 70° C. for 30 min. The data fitting was performed using the software Prism. Labeling results of eRF1 alone and within the eRF1.eRF3.GDPNP complex were fit with a one-site binding model and a two-site binding model, respectively.

[1] = biological target: T2, eRF1.eRF3.GDPNP ternary complex (Saccharomyces cerevisiae, UniProt P12385); assay: [3H]-AzAt photoaffinity labeling of eRF1 within ternary complex; assay type: binding
T2 construct: made in house; host or cells: E. coli BL21(DE3) CodonPlus
Method: as §1, §2

[2] = system: Small RNAs within Stop-POST5 complex; assay: AzAt photoincorporation into small RNAs (urea-PAGE, RNAse H fragments); assay type: binding, shrimp (Artemia salina)
Method: FIG. 11 illustrates 8% Urea-PAGE resolution of small RNAs.
as §1
Stop-POST5 and 80S-IRES complexes. 1 μM solutions of either Stop-POST5 or 80S-S.IRES, determined by A260, were photolabeled by [^3H]-AzAt. The sample was then either directly purified by ultracentrifugation through a sucrose cushion to determine the photoincorporation stoichiometry in the complex, or subjected to phenol/chloroform extraction to determine the photoincorporation stoichiometry in the total RNA. To determine the photoincorporation background arising from incomplete removal of noncovalently bound photolyzed AzAt, AzAt was prephotolysed for 5 min before adding to the complex, followed by the 20 min incubation in dark at 37° C. and subsequent sucrose cushion purification or RNA extraction as described above.
(§3) RNaseH Fragment Assay. Total RNA was prepared from the ^3H-AzAt photoaffinity labeled ribosome by phenol-chloroform extraction. RNA: DNA duplexes were formed by incubating total RNA (0.2 μM) with an oligonucleotide pair (1 μM of each, sequences shown Table 1), flanking a specific RNA region, in 22.8 μL of water at 95° C. for 2 min, followed by annealing at 50° C. for 30 s and quenching on ice. Six units (1.2 μL) of RNase H (NEB) and 6 μl of 5×RNase H Reaction Buffer were next added to the RNA: DNA duplex and incubated at 37° C. for 1 hour, followed by phenol-chloroform extraction of RNA. The digested RNA was separated on 12% TBE-Urea PAGE gel, and the target band along with the adjacent upper and bottom gels were sliced by a 2 mm gel cutter. The gel slices were crushed and the ^3H labeled rRNA fragment was extracted in water by vigorously shaking at 70° C. for 30 min, or by overnight extraction in elution buffer (0.3M sodium acetate, 0.25% SDS, 1 mM EDTA). The slurry was removed by centrifugation and the eluted ^3H labeled rRNA in the supernatant was quantified. The stoichiometry of AzAt photoincorporation was calculated based on a gel recovery yield of 20±2%, determined using an authentic sample of [^3H]-Gln-tRNA^Gln.
Small RNAs. AzAt photoincorporation into the 4 small RNAs (CrPV-IRES, 5.8S rRNA, 5S rRNA, and tRNA) contained within POST5 was examined by one-dimensional (1D) urea-PAGE analysis, by RNA-Seq, and by RNAse H fragment assay (FIG. 11).

[3] = system: rRNA fragments I-IV of Stop-POST5; assay: RNaseH fragment assay, Stop-POST5; assay type: binding, shrimp (Artemia salina)
Method: as §3
Testing the functional pertinence of AzAt photolabeling of 18S A1195, 28S-A3093, 28S-A2672, and 28S-2669. An RNAse H fragment assay was employed to determine whether the potential functionally significant sites identified by LASER-seq correspond to ataluren binding sites relevant for termination activity. In this assay, oligonucleotide hybridization, RNase H digestion and polyacrylamide gel electrophoresis (PAGE) were used to determine the stoichiometry of [^3H]-AzAt photoincorporation into the three rRNA fragments that together include the four nucleotides of interest: Fragment I, 18S-A1195; Fragment II, 26S-A3093; Fragment III, 26S-A2669 and 26S-A2672 (Table 5). The separate addition of four potential competitors of AzAt binding (eRF1 alone, the stably bound eRF1.eRF3.GDPNP complex, ataluren, and the ataluren-like TRID GJ072) was used to test how these affected such photoincorporation. These experiments, the results of which are summarized in Table 5, were performed at two different AzAt concentrations. eRF1 and eRF1.eRF3.GDPNP effects were measured using 300 μM AzAt, paralleling the LASER-Seq PAL experiments.

[4] = PAL, 30 μM AzAt, alone (AzAt) or plus competing ligand named as label (Ataluren 500 μM, GJ072 150 μM)
[5] = PAL, 30 μM AzAt, alone or plus competing ligand named as label
[6] = Stop-POST5, PAL, 30 μM AzAt, alone or plus Ataluren 500 μM / GJ072 150 μM named as label
[7] = PAL, 300 μM AzAt, alone or plus competing ligand named as label
[8] = Stop-POST5, PAL, 300 μM AzAt, alone or plus competing ligand named as label
[9] = Stop-POST5, PRE, 300 μM prephotolysed AzAt

T2 sequence (P05453 166-685): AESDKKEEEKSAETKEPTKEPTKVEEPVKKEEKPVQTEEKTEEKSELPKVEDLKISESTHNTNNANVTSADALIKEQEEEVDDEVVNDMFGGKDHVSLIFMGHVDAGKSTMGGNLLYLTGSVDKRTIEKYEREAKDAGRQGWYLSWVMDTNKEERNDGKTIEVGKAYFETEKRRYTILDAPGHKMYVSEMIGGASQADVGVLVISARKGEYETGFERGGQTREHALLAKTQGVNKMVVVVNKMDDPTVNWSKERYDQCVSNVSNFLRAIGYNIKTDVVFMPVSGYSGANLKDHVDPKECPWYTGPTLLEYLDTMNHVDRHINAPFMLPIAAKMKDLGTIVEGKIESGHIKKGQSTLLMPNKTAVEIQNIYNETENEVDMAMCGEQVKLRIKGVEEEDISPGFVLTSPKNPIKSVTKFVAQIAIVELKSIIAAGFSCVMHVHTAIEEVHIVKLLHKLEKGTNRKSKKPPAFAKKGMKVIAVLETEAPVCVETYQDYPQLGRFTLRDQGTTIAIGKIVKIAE
T2 sequence (P12385 whole entry): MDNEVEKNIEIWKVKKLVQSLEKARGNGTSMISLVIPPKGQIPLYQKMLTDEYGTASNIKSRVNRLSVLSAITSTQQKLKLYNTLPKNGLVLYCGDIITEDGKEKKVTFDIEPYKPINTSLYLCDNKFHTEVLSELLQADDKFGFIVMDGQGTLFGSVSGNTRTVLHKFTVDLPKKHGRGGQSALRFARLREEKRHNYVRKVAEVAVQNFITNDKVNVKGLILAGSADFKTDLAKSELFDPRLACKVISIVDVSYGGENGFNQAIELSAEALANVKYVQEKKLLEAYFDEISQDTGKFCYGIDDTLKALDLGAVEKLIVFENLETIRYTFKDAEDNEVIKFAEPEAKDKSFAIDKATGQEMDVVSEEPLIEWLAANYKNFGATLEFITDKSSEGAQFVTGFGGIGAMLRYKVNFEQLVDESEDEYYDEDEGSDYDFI
T1 sequence (P12385 whole entry): as above

SMILES: O=C(O)c1cccc(-c2noc(-c3ccccc3F)n2)c1 [Ataluren]
- effect on AzAt photoincorporation into isolated eRF1 (eRF1; FIG. 2E): substantially inhibited
- inhibition of AzAt photoincorporation into eRF1 within the ternary complex ([1]; compared with isolated eRF1, FIG. 2E): less marked
- Photoincorporation yields into CrPV-IRES nts1-155 [2, 4]: 0.40 ± 0.13 mole %
- Photoincorporation yields into 5S rRNA [2, 5]: 0.15 ± 0.01 mole %
- Photoincorporation yields into 5.8S rRNA [2, 5]: 0.19 ± 0.01 mole %
- Photoincorporation yields into CrPV-IRES All [2, 5]: 0.76 ± 0.05 mole %
- Photoincorporation yields into CrPV-IRES nts156-221 [2, 5]: 0.17 ± 0.03 mole %
- Photoincorporation yields into CrPV-IRES nts222-278 [2, 5]: 0.07 ± 0.06 mole %
- Photoincorporation yields into tRNA^Gln [2, 5]: 0.22 ± 0.03 mole %
- effect on AzAt labeling of CrPV-IRES fragments 1-155 and 156-221 ([2]; RNAse H fragment assay): no clearly significant changes
- effect on AzAt labeling of small RNAs ([2]; none clearly significant): generally small reductions
- effect on AzAt photoincorporation into Fragment IV (26S A1437/A1438) [3]: neither ataluren nor GJ072 reduce labeling at all
- effect on AzAt photoincorporation into Fragment I (18S-A1195) ([3]; Stop-POST5): strongly inhibits
- effect on AzAt photoincorporation into Fragment II (A3093) ([3]; Stop-POST5): stimulated
- effect on AzAt photoincorporation into Fragment III (A2669/A2672) ([3]; Stop-POST5): only weakly inhibited
- Photoincorporation yields into 18S A1195/ I: 18S 1151-1206 [3, 6]: 0.06 ± 0.01 mole %
- Photoincorporation yields into 26S-A2669:A2672/ III: 26S 2638-2702 [3, 6]: 0.10 ± 0.04 mole %
- Photoincorporation yields into 26S-A3093/ II: 26S 3069-3113 [3, 6]: 0.06 ± 0.01 mole %
- Photoincorporation yields into RNAse H Fragment IV: 26S 1413-1476 [3, 6]: 0.034 ± 0.006%

SMILES: [N-]=[N+]=Nc1ccc(-c2nc(-c3cccc(C(=O)O)c3)no2)cc1 [AzAt]
- Kd (eRF1; hyperbolic saturation curve, read-out: Kd, photoincorporation into isolated eRF1): 110 ± 20 µM
- Kd ([1]; two-site model, read-out: Kd, tight site photoincorporation into eRF1 within ternary complex): 90 ± 20 µM
- Photoincorporation yields into CrPV-IRES nts1-155 [2, 4]: 0.56 ± 0.04 mole %
- Photoincorporation yields into 5S rRNA [2, 5]: 0.19 ± 0.01 mole %
- Photoincorporation yields into 5.8S rRNA [2, 5]: 0.25 ± 0.01 mole %
- Photoincorporation yields into CrPV-IRES All [2, 5]: 0.85 ± 0.14 mole %
- Photoincorporation yields into CrPV-IRES nts156-221 [2, 5]: 0.23 ± 0.08 mole %
- Photoincorporation yields into CrPV-IRES nts222-278 [2, 5]: 0.06 ± 0.04 mole %
- Photoincorporation yields into tRNA^Gln [2, 5]: 0.30 ± 0.04 mole %
- Photoincorporation yields into CrPV-IRES nts1-155 ([2]; PAL, 300 μM AzAt, alone (AzAt) or plus competing ligand named as label (eRF1 2 μM, eRF3 4 μM, GDPNP 1 mM)): 7.6 ± 1.5 mole %
- Photoincorporation yields into 5S rRNA [2, 7]: 1.62 ± 0.11 mole %
- Photoincorporation yields into 5.8S rRNA [2, 7]: 0.89 ± 0.10 mole %
- Photoincorporation yields into CrPV-IRES All [2, 7]: 7.3 ± 0.5 mole %
- Photoincorporation yields into CrPV-IRES nts156-221 [2, 7]: 3.2 ± 0.8 mole %
- Photoincorporation yields into CrPV-IRES nts222-278 [2, 7]: 0.02 ± 0.03 mole %
- Photoincorporation yields into tRNA^Gln [2, 7]: 2.3 ± 0.2 mole %
- Photoincorporation yields into 5S rRNA ([2]; PRE, 300 μM prephotolysed AzAt): 0.02 ± 0.01 mole %
- Photoincorporation yields into 5.8S rRNA ([2]; PRE, 300 μM prephotolysed AzAt): 0.02 ± 0.01 mole %
- Photoincorporation yields into CrPV-IRES All ([2]; PRE, 300 μM prephotolysed AzAt): 0.02 ± 0.01 mole %
- Photoincorporation yields into CrPV-IRES nts1-155 ([2]; PRE, 300 μM prephotolysed AzAt): 0.02 ± 0.01 mole %
- Photoincorporation yields into CrPV-IRES nts156-221 ([2]; PRE, 300 μM prephotolysed AzAt): 0.05 ± 0.04 mole %
- Photoincorporation yields into CrPV-IRES nts222-278 ([2]; PRE, 300 μM prephotolysed AzAt): 0.03 ± 0.01 mole %
- Photoincorporation yields into tRNA^Gln ([2]; PRE, 300 μM prephotolysed AzAt): 0.41 ± 0.09 mole %
- saturating value of photo-incorporation into Fragment II ([3]; FIG. 7B): 0.8%
- saturating value of photo-incorporation into Fragment III ([3]; FIG. 7B): 0.8%
- Photoincorporation yields into 18S A1195/ I: 18S 1151-1206 [3, 6]: 0.26 ± 0.03 mole %
- Photoincorporation yields into 26S-A2669:A2672/ III: 26S 2638-2702 [3, 6]: 0.13 ± 0.04 mole %
- Photoincorporation yields into 26S-A3093/ II: 26S 3069-3113 [3, 6]: 0.03 ± 0.01 mole %
- Photoincorporation yields into RNAse H Fragment IV: 26S 1413-1476 [3, 6]: 0.020 ± 0.003%
- Photoincorporation yields into 26S-A2669:A2672/ III: 26S 2638-2702 [3, 8]: 1.07 ± 0.14 mole %
- Photoincorporation yields into 26S-A3093/ II: 26S 3069-3113 [3, 8]: 0.40 ± 0.01 mole %
- Photoincorporation yields into RNAse H Fragment IV: 26S 1413-1476 ([3]; Stop-POST5, PAL, 300 μM AzAt, alone or plus competing ligand named as label (eRF1 2 μM, eRF3 4 μM, GDPNP 1 mM)): 0.29 ± 0.03%
- Photoincorporation yields into 18S A1195/ I: 18S 1151-1206 ([3]; Stop-POST5, PAL, 300 μM AzAt, alone or plus competing ligand named as label (eRF1 2 μM, eRF3 4 μM, GDPNP)): 1.55 ± 0.20 mole %
- Photoincorporation yields into 18S A1195/ I: 18S 1151-1206 [3, 9]: 0.012 ± 0.003 mole %
- Photoincorporation yields into 26S-A2669:A2672/ III: 26S 2638-2702 [3, 9]: 0.03 ± 0.02 mole %
- Photoincorporation yields into 26S-A3093/ II: 26S 3069-3113 [3, 9]: 0.04 ± 0.01 mole %
- KA, photoincorporation into Fragments II and III (PTC) ([3]; fit to eq (1)): 200 ± 40 µM
- Kd ([3]; simple hyperbolic binding isotherm, FIG. 7A, read-out: apparent KD, photoincorporation into Fragment I (18S-A1195)): 240 ± 10 µM
